We go through one compound from patent US8961837B2, “Photosensitive resin composition for color filter and color filter using same” (Cheil Industries Inc., priority 2010, dated 2015).

Series [1] in a line: Spectrum transmittance / maximum absorption wavelength of the dye. The series is classed as physicochemical. On the procedure: (§1) The diaminopyridine azo-based dyes (A-1) according to Examples 1 to 6 are measured regarding various properties such as solubility, maximum absorption wavelength, thermal decomposition temperature, and the like.
(§2) FIG. 1 is a graph showing the spectrum transmittance graph of the diaminopyridine azo-based dye (A-1), and FIG. 2 is a graph showing thermogravimetric analysis (TGA) results.

Series [2] in a line: Thermogravimetric analysis (TGA) of the dye. The series is classed as physicochemical. The settings on record: temperature at which 10% of weight is decomposed (TGA). On the procedure: as §1, §2

The structures appear in SMILES notation.

With `CCCCC(CC)CNCCS(=O)(=O)c1ccc(/N=N/c2c(NCC(CC)CCCC)nc(NCC(CC)CCCC)c(C#N)c2C)cc1` (centres unmarked) [A-1], the maximum absorption wavelength in series [1] was 470 nm. In series [2], this compound registered a thermal decomposition temperature of 318 °C.
